Test results taken from patent US20040152747A1, “Thiazole compounds for treatment of neurodegenerative disorders” (Pfizer Inc, priority 2002, published 2004).

Test system: gamma-secretase
Test: gamma-secretase activity in a solubilized membrane preparation (cell-free assay, McLendon et al.)
Type: biochemical
Settings: read-out: IC50 activity for inhibiting gamma-secretase activity
Description: The activity of compounds of the invention in inhibiting gamma-secretase activity was determined in a solubilized membrane preparation generally according to the description provided in McLendon et al. Cell-free assays for γ-secretase activity, The FASEB Journal (Vol. 14, December 2000, pp. 2383-2386).

IC50: ~5 µM
Compound: CCC(NC(=O)Cc1cc(F)cc(F)c1)C(=O)Nc1ncc(-c2ccc(Br)s2)s1 (stereo not shown) [Example 11, N-[5-(5-bromo-thiophen-2-yl)-thiazol-2-yl]-2-[2-(3,5-difluoro-phenyl)-acetylamino]-butyramide]
